Test results taken from the NIST ThermoML archive (doi:10.1021/je049874h).
Numbers after ± are expanded uncertainties.

Settings: Liquid

vapor or sublimation pressure (263.15 K) [kPa]	vapor or sublimation pressure (278.15 K) [kPa]	vapor or sublimation pressure (293.15 K) [kPa]	SMILES
580.2 ± 2.8	949.6 ± 3.6	1473.2 ± 4.8	FCF [difluoromethane]
69.6 ± 2	125.1 ± 2	209.4 ± 2.1	CCCC [butane]
